Reference: article PMC8037182, “Solvothermal Synthesis of Multiple Dihydropyrimidinones at a Time as Inhibitors of Eg5” (Molecules, 2021)

Target: T1, Eg5 motor protein (Homo sapiens, UniProt P52732)
T1 construct: Eg5 motor domain (amino acids 1-368) was cloned into pET22b; His-tag (C); made in house; host or cells: Escherichia coli BL21 (DE3)
T1 sequence (P52732 1-368): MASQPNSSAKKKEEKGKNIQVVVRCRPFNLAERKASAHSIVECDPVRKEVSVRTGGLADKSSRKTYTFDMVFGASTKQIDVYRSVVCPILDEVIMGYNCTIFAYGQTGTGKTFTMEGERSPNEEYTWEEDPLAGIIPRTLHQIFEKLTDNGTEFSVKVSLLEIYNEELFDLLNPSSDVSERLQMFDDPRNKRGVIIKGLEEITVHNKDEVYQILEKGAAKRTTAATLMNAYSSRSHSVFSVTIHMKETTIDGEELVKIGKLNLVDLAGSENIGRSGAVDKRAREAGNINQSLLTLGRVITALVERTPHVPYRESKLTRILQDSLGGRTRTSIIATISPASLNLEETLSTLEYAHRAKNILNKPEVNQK
Assay: microtubule-activated Eg5 motor protein ATPase assay (malachite green, OD630)
Type: biochemical
Conditions: for IC50: microtubule-stimulated KSP ATPase activity
Experimental: Eg5 motor domain (amino acids 1-368) was cloned into pET22b and expressed in Escherichia coli BL21 (DE3) cells.
Tubulin was purified from pig brain, as described in the literature, and stored at −60 °C in BRB80 (80 mM K-Pipes, pH 6.8, 1 mM EGTA, 1 mM MgCl2). Before the assay of Eg5 ATPase, microtubules were assembled in the presence of paclitaxel and were then separated from unassembled tubulin by centrifugation as described in the literature.
Inhibitory activities of the compounds were measured using a microtubule-activated ATPase assay. The compounds, paclitaxel stabilized microtubules, Eg5 motor protein and BRB80 were added to wells of a 96-well plate in a total reaction volume of 38.5 μL. Reactions were started by the addition of 522.11 μM ATP in a total reaction volume of 98.5 μL, incubated at 37 °C for 30 min and terminated by the addition of 15 μL of perchloric acid. The mixture was centrifuged (10,000 rpm) 10 min at room temperature. The supernatant from this centrifugation step was mixed with HCl 1 M, 33 mM malachite green, 775 mM ammonium molybdate tetrahydrate. After 10 min the absorbance was measured at 630 nm using a microplate reader (BIO-RAD iMark^TM). […] Monastrol was used as the positive control. All conditions were performed in three independent duplicate experiments and averaged data points are shown as mean values ± SD, IC50 values were calculated with SPSS17.0 software. The primary data were shown in Supplementary Materials Tables S1–S3.
A sequence of human Eg5 corresponding to amino acids 1 to 368 was amplified with polymerase chain reaction (PCR) by NOVOPRO BIOSCIENCE INC. It was cloned into pET22b introducing a C-terminal His-tag. The protein was expressed in Escherichia coli BL21 (DE3) cells for 12 h at 25 ℃ in LB containing 1mM Isopropyl-beta-D-thiogalactopyranoside (IPTG), 50 ug/ml Ampicillin. The harvested cells were lysed with Ultrasonic Processor in Binder-buffer (50 mM Tris-HCl, 350 mM NaCl, 10 mM Imidazole, pH 8.0). The clarified lysate was loaded onto a Ni-IDA -Sepharose CL-6B Affi Gel column (Sigma), washed with Washing-buffer(20 mM Tris-HCl, 350 mM NaCl, 20 mM Imidazole, pH 8.0) untill effluent OD280 value reaches baseline. Then it was eluted with Elution-buffer (20 mM Tris-HCl, 350 mM NaCl , 250 mM Imidazole, pH8.0). The buffer was exchanged to 150 mM NaCl, 20mM Tris pH 8.0 by dialysis. The protein concentration was adjusted to 2 mg/ml (measured by a Bradford assay using bovine serum albumin (BSA) as standard). Eg5368H was stored at -20 ℃.
Pig brains were cleaned of blood clots with kitchen paper, weighed, and transferred to a Waring blender. Cold (4 ℃) depolymerization buffer (DB) was added at a ratio of 1 liter/kg of brain tissue. The mixture was homogenized twice for approximately 30 s. The homogenates were then centrifuged in a SLA 1500 Sorvall rotor at 29,000g for 60 min at 4 ℃. The supernatants were pooled and supplemented with an equal volume of warm (37 ℃) high-molarity PIPES buffer (HMPB), ATP (1.5 mM final), and GTP (0.5 mM final). An equal volume (1/3 of the final volume) of pre-warmed to 37 ℃ anhydrous glycerol was added to this solution. This mixture was incubated in a 37 ℃ water bath for 1 h. The polymerized tubulin was then centrifuged in a Ti 45 Beckman rotor at 151,000g (44,000 rpm) for 30 min at 37 ℃. The resulting microtubule pellets were resuspended in 100 ml of cold DB and left for 30 min on ice. The depolymerized tubulinwas subsequently centrifuged in a Ti 45 Beckman rotor at 70,000g (30,000 rpm) for 30 min at 4 ℃. The supernatant from this centrifugation step was mixed with an equal volume of the HMPB supplemented with ATP and GTP, followed by the addition of glycerol (1/3 of the final volume) as described above. The mixture was incubated in a 37 ℃ water bath for 30 min, and the polymerized tubulin was pelleted in a Ti 45 Beckman rotor at 151,000g (44,000 rpm) for 30 min at 37 ℃. […]

Row | OD630 Value Mean (compound 24.24 uM) | OD630 Value Mean (compound 30.3 uM) | OD630 Value Mean (compound 60.61 uM) | OD630 Value Mean (compound 80.81 uM) | OD630 Value Mean (compound 90.91 uM) | OD630 Value Mean (compound 121.21 uM) | IC50 [µM] | OD630 Value Mean (compound 25.38 uM) | OD630 Value Mean (compound 50.76 uM) | OD630 Value Mean (compound 67.68 uM) | OD630 Value Mean (compound 76.14 uM) | OD630 Value Mean (compound 101.52 uM) | OD630 Value Mean (compound 20.2 uM) | OD630 Value Mean (compound 40.41 uM) | OD630 Value Mean (compound 53.87 uM) | OD630 Value Mean (compound 107.74 uM) | SMILES
1 | 0.221 | 0.182 | 0.163 | 0.157 | 0.156 | 0.14 | 30.2 | – | – | – | – | – | – | – | – | – | CCOc1ccccc1C1NC(=S)NC(C)=C1C(=O)Nc1ccc(Cl)cc1 (stereo not shown) [C9]
2 | – | – | – | – | – | – | 38.7 | 0.26 | 0.248 | 0.195 | 0.189 | 0.159 | – | – | – | – | CCOC(=O)c1c(C2NC(=O)NC(C)=C2C(=O)Nc2ccccc2OC)[nH]c(C(=O)OC)c1C (stereo not shown) [D1]
3 | – | – | 0.219 | 0.137 | – | – | 67.3 | – | – | – | – | – | 0.322 | 0.279 | 0.26 | – | CCOC(=O)c1c(C2NC(=O)NC(C)=C2C(=O)Nc2ccccc2C)[nH]c(C(=O)OC)c1C (stereo not shown) [D2]
4 | 0.218 | 0.182 | 0.146 | – | 0.122 | 0.115 | 53.6 | – | – | – | – | – | – | – | – | – | CCOC(=O)c1[nH]c(C2NC(=O)NC(C)=C2C(=O)Nc2ccccc2OC)c(C(=O)OC)c1C (stereo not shown) [D3]
5 | 0.198 | 0.174 | 0.158 | – | 0.148 | 0.134 | 71.3 | – | – | – | – | – | – | – | – | – | CCOC(=O)c1[nH]c(C2NC(=O)NC(C)=C2C(=O)Nc2ccccc2C)c(C(=O)OC)c1C (stereo not shown) [D4]
6 | – | 0.231 | 0.197 | 0.164 | 0.158 | 0.146 | 63.2 | – | – | – | – | – | – | – | – | – | CCOC(=O)c1[nH]c(C2NC(=O)NC(C)=C2C(=O)Nc2ccc(Cl)cc2)c(C(=O)OCC)c1C (stereo not shown) [D7]
7 | – | – | 0.225 | 0.197 | 0.191 | 0.133 | 64.4 | – | – | – | – | – | – | – | – | 0.139 | CCOC(=O)c1c(C2NC(=O)NC(C)=C2C(=O)Nc2ccccc2)[nH]c(C(=O)OC)c1C (stereo not shown) [D10]
8 | – | 0.243 | 0.191 | 0.141 | 0.129 | 0.123 | 57.4 | – | – | – | – | – | – | – | – | – | CCOC(=O)c1[nH]c(C2NC(=S)NC(C)=C2C(=O)OC)c(C(=O)OCC)c1C (stereo not shown) [D12]
9 | – | 0.25 | 0.187 | 0.151 | 0.138 | 0.14 | 71.9 | – | – | – | – | – | – | – | – | – | COC(=O)c1[nH]c(C2NC(=S)NC(C)=C2C(=O)c2ccccc2)c(C(=O)OC)c1C (stereo not shown) [D14]
10 | – | – | – | – | – | – | 51.7 | 0.214 | 0.193 | 0.190 | 0.188 | 0.177 | – | – | – | – | CCOC(=O)C1=C(C)NC(=S)NC1c1cccc(O)c1 (stereo not shown) [Monastrol, monastrol, reference compound]
